{
  "source": "patent US20180193334A1",
  "about": "“PHARMACEUTICAL COMPOSITION OF VORTIOXETINE OR SALT THEREOF, AND PREPARATION METHOD THEREFOR” (Changzhou Fangnan Pharmaceuticals, Ltd., priority 2015, published 2018)",
  "origin": "cited, not measured here",
  "data": [
    {"smiles": "Br.Cc1ccc(Sc2ccccc2N2CCNCC2)c(C)c1", "note": "[1-[2-(2,4-methylphenylthio)phenyl] piperazine hydrobromide]", "values": [
      {"measurement": "solubility in water", "value": 1200, "unit": "µg/mL"}
    ]},
    {"smiles": "Cc1ccc(Sc2ccccc2N2CCNCC2)c(C)c1", "note": "[vortioxetine free base]", "values": [
      {"measurement": "solubility in water", "value": 100, "unit": "µg/mL"}
    ]}
  ]
}
